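96-well plates; 48 h exposure; 5 concentrations. Endpoints by linear interpolation between flanking doses. Not reached: highest tested concentration assigned. GI50 = concentration required for 50% inhibition of growth. Definition used: TGI = concentration required for complete inhibition of growth.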
Tests used:
Assay in all cases: NCI anticancer screen, dose series, 48 h
PC-3 prostate = test system: PC-3 prostate
UACC-62 melanoma = test system: UACC-62 melanoma
CCRF-CEM leukemia = test system: CCRF-CEM leukemia
HOP-92 NSCLC = test system: HOP-92 NSCLC
SK-MEL-5 melanoma = test system: SK-MEL-5 melanoma
T-47D breast = test system: T-47D breast
OVCAR-4 ovarian = test system: OVCAR-4 ovarian
U251 CNS = test system: U251 CNS
HOP-62 NSCLC = test system: HOP-62 NSCLC
SN12C renal = test system: SN12C renal
NCI-H23 lung = test system: NCI-H23 lung
M14 melanoma = test system: M14 melanoma
HCC-2998 colon = test system: HCC-2998 colon
786-0 renal = test system: 786-0 renal
SF-539 CNS = test system: SF-539 CNS
NCI-H460 lung = test system: NCI-H460 lung
HCT-116 colon = test system: HCT-116 colon
DU-145 prostate = test system: DU-145 prostate
OVCAR-8 ovarian = test system: OVCAR-8 ovarian
K-562 leukemia = test system: K-562 leukemia
LOX IMVI melanoma = test system: LOX IMVI melanoma
UO-31 renal = test system: UO-31 renal
MDA-MB-435 = test system: MDA-MB-435
MDA-MB-231 breast = test system: MDA-MB-231 breast
IGROV1 ovarian = test system: IGROV1 ovarian
RXF 393 renal = test system: RXF 393 renal
COLO 205 colon = test system: COLO 205 colon
A498 renal = test system: A498 renal
SNB-19 CNS = test system: SNB-19 CNS
HS 578T breast = test system: HS 578T breast
SW-620 colon = test system: SW-620 colon
HT29 colon = test system: HT29 colon
SF-295 CNS = test system: SF-295 CNS
TK-10 renal = test system: TK-10 renal
BT-549 breast = test system: BT-549 breast
HCT-15 colon = test system: HCT-15 colon
SK-OV-3 ovarian = test system: SK-OV-3 ovarian
A549 NSCLC = test system: A549 NSCLC
SK-MEL-2 melanoma = test system: SK-MEL-2 melanoma
KM12 colon = test system: KM12 colon
EKVX NSCLC = test system: EKVX NSCLC
UACC-257 melanoma = test system: UACC-257 melanoma
SNB-75 CNS = test system: SNB-75 CNS
ACHN renal = test system: ACHN renal
HL-60(TB) leukemia = test system: HL-60(TB) leukemia
MALME-3M melanoma = test system: MALME-3M melanoma
NCI-H226 lung = test system: NCI-H226 lung
MCF7 breast = test system: MCF7 breast
CAKI-1 renal = test system: CAKI-1 renal
NCI-H522 lung = test system: NCI-H522 lung
RPMI-8226 leukemia = test system: RPMI-8226 leukemia
SR leukemia = test system: SR leukemia
MOLT-4 leukemia = test system: MOLT-4 leukemia
OVCAR-3 ovarian = test system: OVCAR-3 ovarian
SK-MEL-28 melanoma = test system: SK-MEL-28 melanoma
NCI/ADR-RES ovarian = test system: NCI/ADR-RES ovarian
SF-268 CNS = test system: SF-268 CNS

Compound `O=C1NCCS(=O)(=O)/C1=C\C=C\c1cccc(C(F)(F)F)c1` has a GI50 (PC-3 prostate) of 2.79 µM, a TGI (PC-3 prostate) of 11.4 µM and a GI50 (UACC-62 melanoma) of 1.46 µM. It also gave a TGI (UACC-62 melanoma) of 3.89 µM, a GI50 (CCRF-CEM leukemia) of 2.13 µM and a TGI (CCRF-CEM leukemia) of 10.7 µM. It also gave a GI50 (HOP-92 NSCLC) of 5.09 µM, a TGI (HOP-92 NSCLC) of 16.4 µM and a GI50 (SK-MEL-5 melanoma) of 1.71 µM. For the same compound, the TGI (SK-MEL-5 melanoma) was 3.36 µM, the GI50 (T-47D breast) was 3.51 µM and the TGI (T-47D breast) was 17.3 µM. The GI50 (OVCAR-4 ovarian) was 4.84 µM, the TGI (OVCAR-4 ovarian) was 19.2 µM and the GI50 (U251 CNS) was 1.67 µM. For the same compound, the TGI (U251 CNS) was 3.86 µM, the GI50 (HOP-62 NSCLC) was 3.72 µM and the TGI (HOP-62 NSCLC) was 12.7 µM. It also gave a GI50 (SN12C renal) of 3.08 µM, a TGI (SN12C renal) of 12 µM and a GI50 (NCI-H23 lung) of 1.94 µM. It also gave a TGI (NCI-H23 lung) of 8.02 µM, a GI50 (M14 melanoma) of 1.89 µM and a TGI (M14 melanoma) of 7.24 µM. It also gave a GI50 (HCC-2998 colon) of 1.93 µM, a TGI (HCC-2998 colon) of 3.72 µM and a GI50 (786-0 renal) of 2.64 µM. It also gave a TGI (786-0 renal) of 7.67 µM, a GI50 (SF-539 CNS) of 2.83 µM and a TGI (SF-539 CNS) of 10.1 µM. The GI50 (NCI-H460 lung) was 2.73 µM, the TGI (NCI-H460 lung) was 7.68 µM and the GI50 (HCT-116 colon) was 1.41 µM. The TGI (HCT-116 colon) was 3.72 µM, the GI50 (DU-145 prostate) was 2.96 µM and the TGI (DU-145 prostate) was 13.6 µM. The GI50 (OVCAR-8 ovarian) was 3.46 µM, the TGI (OVCAR-8 ovarian) was 16.8 µM and the GI50 (K-562 leukemia) was 2.48 µM. The TGI (K-562 leukemia) was 25.7 µM, the GI50 (LOX IMVI melanoma) was 1.23 µM and the TGI (LOX IMVI melanoma) was 2.61 µM. The GI50 (UO-31 renal) was 1.76 µM, the TGI (UO-31 renal) was 3.79 µM and the GI50 (MDA-MB-435) was 1.81 µM. For the same compound, the TGI (MDA-MB-435) was 6.47 µM, the GI50 (MDA-MB-231 breast) was 4.21 µM and the TGI (MDA-MB-231 breast) was 15.9 µM. It also gave a GI50 (IGROV1 ovarian) of 2.61 µM, a TGI (IGROV1 ovarian) of 11.8 µM and a GI50 (RXF 393 renal) of 2.52 µM. It also gave a TGI (RXF 393 renal) of 5.37 µM, a GI50 (COLO 205 colon) of 2.31 µM and a TGI (COLO 205 colon) of 5.2 µM. For the same compound, the GI50 (A498 renal) was 2.51 µM, the TGI (A498 renal) was 5.31 µM and the GI50 (SNB-19 CNS) was 2.62 µM. For the same compound, the TGI (SNB-19 CNS) was 10.7 µM, the GI50 (HS 578T breast) was 6.81 µM and the TGI (HS 578T breast) was 30.7 µM. The GI50 (SW-620 colon) was 2.65 µM, the TGI (SW-620 colon) was 7.56 µM and the GI50 (HT29 colon) was 2.3 µM. For the same compound, the TGI (HT29 colon) was 5.38 µM, the GI50 (SF-295 CNS) was 3.71 µM and the TGI (SF-295 CNS) was 15 µM. For the same compound, the GI50 (TK-10 renal) was 3.95 µM, the TGI (TK-10 renal) was 13 µM and the GI50 (BT-549 breast) was 2.4 µM. For the same compound, the TGI (BT-549 breast) was 8.54 µM, the GI50 (HCT-15 colon) was 1.56 µM and the TGI (HCT-15 colon) was 5.29 µM. The GI50 (SK-OV-3 ovarian) was 5.83 µM, the TGI (SK-OV-3 ovarian) was 18.3 µM and the GI50 (A549 NSCLC) was 2.98 µM. It also gave a TGI (A549 NSCLC) of 11.6 µM, a GI50 (SK-MEL-2 melanoma) of 2.62 µM and a TGI (SK-MEL-2 melanoma) of 9.77 µM. It also gave a GI50 (KM12 colon) of 2.36 µM, a TGI (KM12 colon) of 6.67 µM and a GI50 (EKVX NSCLC) of 4.31 µM. The TGI (EKVX NSCLC) was 16.5 µM, the GI50 (UACC-257 melanoma) was 1.83 µM and the TGI (UACC-257 melanoma) was 9.22 µM. It also gave a GI50 (SNB-75 CNS) of 4.36 µM, a TGI (SNB-75 CNS) of 20.1 µM and a GI50 (ACHN renal) of 1.99 µM. It also gave a TGI (ACHN renal) of 4.52 µM, a GI50 (HL-60(TB) leukemia) of 2.4 µM and a TGI (HL-60(TB) leukemia) of 7.26 µM. It also gave a GI50 (MALME-3M melanoma) of 4.02 µM, a TGI (MALME-3M melanoma) of 17.2 µM and a GI50 (NCI-H226 lung) of 2.75 µM. For the same compound, the TGI (NCI-H226 lung) was 7.65 µM, the GI50 (MCF7 breast) was 0.188 µM and the TGI (MCF7 breast) was 11 µM. For the same compound, the GI50 (CAKI-1 renal) was 2.22 µM, the TGI (CAKI-1 renal) was 10.2 µM and the GI50 (NCI-H522 lung) was 1.43 µM. It also gave a TGI (NCI-H522 lung) of 3.19 µM, a GI50 (RPMI-8226 leukemia) of 2.19 µM and a TGI (RPMI-8226 leukemia) of 8.31 µM. The GI50 (SR leukemia) was 0.539 µM, the TGI (SR leukemia) was > 100 µM and the GI50 (MOLT-4 leukemia) was 2.05 µM. The TGI (MOLT-4 leukemia) was 9.54 µM, the GI50 (OVCAR-3 ovarian) was 2.85 µM and the TGI (OVCAR-3 ovarian) was 11.4 µM. For the same compound, the GI50 (SK-MEL-28 melanoma) was 2.92 µM, the TGI (SK-MEL-28 melanoma) was 11.3 µM and the GI50 (NCI/ADR-RES ovarian) was 2.81 µM. The TGI (NCI/ADR-RES ovarian) was 14.2 µM, the GI50 (SF-268 CNS) was 3.28 µM and the TGI (SF-268 CNS) was 15 µM.

— PubChem BioAssay (NCI)
